The source made the active and inactive calls.

Usually IC50 stands for the concentration at which inhibition is half-maximal.

Assay [1] addresses Phosphoethanolamine/phosphocholine phosphatase (Homo sapiens, UniProt Q8TCT1). The experiment in a line: SAR assay for compounds that inhibit PHOSPHO1. [Related pubchem assays (depositor defined):AID1545, AID1565, AID1574].
Assay [2] can be described thus: Counterscreen for IDE inhibitors: Luminescence-based cell-based high throughput dose response assay to identify compounds that are cytotoxic to HEK cells. [Related pubchem assays: 434962 (Primary screen (IDE inhibitors in singlicate)), 449730 (Counterscreen (Cytotoxicity in triplicate)), 435028 (Confirmation (IDE inhibitors in triplicate)) …. Format: functional. Particulars: HEK293. For orientation: The purpose of a counterscreen is to sort out artefacts and off-target activity.

The target of assay [3] is DNA dC->dU-editing enzyme APOBEC-3A (Homo sapiens, UniProt P31941). The experiment in a line: APOBEC3A DNA deaminase inhibitors, dose response, biochemical (AID 504722). It counts as functional.
Chain of DNA dC->dU-editing enzyme APOBEC-3A (P31941 whole entry): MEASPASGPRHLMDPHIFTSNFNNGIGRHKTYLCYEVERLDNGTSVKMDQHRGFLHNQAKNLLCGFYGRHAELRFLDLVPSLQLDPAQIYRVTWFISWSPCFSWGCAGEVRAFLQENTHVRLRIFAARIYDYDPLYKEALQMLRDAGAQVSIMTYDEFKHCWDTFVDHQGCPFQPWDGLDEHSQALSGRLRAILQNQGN
For assay [4], the target named is T1, Alkaline phosphatase, tissue-nonspecific isozyme (Homo sapiens, UniProt P05186).
T1 sequence (P05186 whole entry): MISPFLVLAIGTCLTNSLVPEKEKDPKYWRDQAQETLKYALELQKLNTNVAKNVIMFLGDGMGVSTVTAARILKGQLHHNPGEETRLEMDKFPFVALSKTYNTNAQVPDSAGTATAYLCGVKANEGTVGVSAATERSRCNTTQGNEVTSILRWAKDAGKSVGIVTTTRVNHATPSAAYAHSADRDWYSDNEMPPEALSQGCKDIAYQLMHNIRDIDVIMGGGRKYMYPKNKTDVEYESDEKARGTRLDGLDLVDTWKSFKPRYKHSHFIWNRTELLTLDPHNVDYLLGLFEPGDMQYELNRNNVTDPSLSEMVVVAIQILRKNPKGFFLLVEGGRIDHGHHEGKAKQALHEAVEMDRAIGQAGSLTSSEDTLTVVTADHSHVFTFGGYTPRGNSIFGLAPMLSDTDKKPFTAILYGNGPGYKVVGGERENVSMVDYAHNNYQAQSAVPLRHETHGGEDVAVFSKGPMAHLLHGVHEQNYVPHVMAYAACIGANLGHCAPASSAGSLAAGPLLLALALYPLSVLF
The experiment in a line: human TNAP enzyme inhibitors, SAR follow-up, biochemical, luminescent, dose response (AID 1056).

Assay [5] addresses T2, Mannose-6-phosphate isomerase (Homo sapiens, UniProt P34949).
T2 sequence (P34949 whole entry): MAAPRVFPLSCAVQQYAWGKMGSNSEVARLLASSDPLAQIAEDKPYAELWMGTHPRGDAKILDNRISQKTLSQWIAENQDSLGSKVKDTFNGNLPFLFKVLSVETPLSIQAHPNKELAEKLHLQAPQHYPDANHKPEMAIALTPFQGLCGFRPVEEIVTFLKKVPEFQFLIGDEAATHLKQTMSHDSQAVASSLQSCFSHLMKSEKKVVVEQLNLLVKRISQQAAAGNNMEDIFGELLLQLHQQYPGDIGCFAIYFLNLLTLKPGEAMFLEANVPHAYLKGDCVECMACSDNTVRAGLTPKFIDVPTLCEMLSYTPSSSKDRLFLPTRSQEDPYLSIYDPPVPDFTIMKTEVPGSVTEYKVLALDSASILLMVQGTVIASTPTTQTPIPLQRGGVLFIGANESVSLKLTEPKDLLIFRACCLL
The experiment in a line: PMI enzyme inhibitors, confirmation, biochemical, fluorescence intensity (AID 1535).

Assay [6] concerns the target T3, Rac GTPase-activating protein 1 (Homo sapiens, UniProt Q9H0H5).
T3 sequence (Q9H0H5 whole entry): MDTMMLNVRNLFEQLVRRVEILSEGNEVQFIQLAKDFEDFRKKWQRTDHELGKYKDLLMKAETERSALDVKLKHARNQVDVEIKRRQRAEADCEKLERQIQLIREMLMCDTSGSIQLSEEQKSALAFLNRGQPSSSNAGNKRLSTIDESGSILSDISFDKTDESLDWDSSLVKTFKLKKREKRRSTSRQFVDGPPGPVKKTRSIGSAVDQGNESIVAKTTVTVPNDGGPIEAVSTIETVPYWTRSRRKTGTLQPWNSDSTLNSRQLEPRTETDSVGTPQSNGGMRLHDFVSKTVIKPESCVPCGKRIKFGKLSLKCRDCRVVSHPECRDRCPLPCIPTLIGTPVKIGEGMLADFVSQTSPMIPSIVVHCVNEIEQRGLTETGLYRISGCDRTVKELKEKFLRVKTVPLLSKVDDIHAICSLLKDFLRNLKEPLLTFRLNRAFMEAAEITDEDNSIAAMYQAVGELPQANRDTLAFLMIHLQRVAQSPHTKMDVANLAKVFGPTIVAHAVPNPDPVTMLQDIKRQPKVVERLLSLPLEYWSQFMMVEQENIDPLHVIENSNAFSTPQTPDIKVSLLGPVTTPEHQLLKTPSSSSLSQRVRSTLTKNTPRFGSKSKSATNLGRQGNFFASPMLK
The experiment in a line: MgcRacGAP GTPase-activating activity inhibitors, confirmation, biochemical, ADP Hunter fluorescence, primary and confirmatory (AID 624330). It counts as functional.

Assay [7] addresses DNA dC->dU-editing enzyme APOBEC-3G (Homo sapiens, UniProt Q9HC16). The assay is described as follows: Dose Response confirmation of small molecule APOBEC3G DNA Deaminase Inhibitors via a fluorescence-based single-stranded DNA deaminase assay. [Related pubchem assays (depositor defined):AID493012, AID493028]. It counts as functional.
The target of assay [8] is T4, Phosphomannomutase 2 (Homo sapiens, UniProt O15305).
T4 sequence (O15305 whole entry): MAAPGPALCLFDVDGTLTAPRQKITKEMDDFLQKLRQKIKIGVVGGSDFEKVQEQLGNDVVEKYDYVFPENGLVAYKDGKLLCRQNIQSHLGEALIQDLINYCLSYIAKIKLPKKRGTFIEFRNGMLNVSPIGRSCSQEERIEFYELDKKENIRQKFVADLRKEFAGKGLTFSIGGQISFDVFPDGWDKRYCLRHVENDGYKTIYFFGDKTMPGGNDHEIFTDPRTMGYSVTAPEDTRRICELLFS
The experiment in a line: Counter screen SAR assay for PMM2 inhibitors via a fluorescence intensity assay. [Related pubchem assays (depositor defined):AID1545, AID1574].

Assay [9] concerns the target T5, Insulin-degrading enzyme (Homo sapiens, UniProt P14735).
T5 sequence (P14735 whole entry): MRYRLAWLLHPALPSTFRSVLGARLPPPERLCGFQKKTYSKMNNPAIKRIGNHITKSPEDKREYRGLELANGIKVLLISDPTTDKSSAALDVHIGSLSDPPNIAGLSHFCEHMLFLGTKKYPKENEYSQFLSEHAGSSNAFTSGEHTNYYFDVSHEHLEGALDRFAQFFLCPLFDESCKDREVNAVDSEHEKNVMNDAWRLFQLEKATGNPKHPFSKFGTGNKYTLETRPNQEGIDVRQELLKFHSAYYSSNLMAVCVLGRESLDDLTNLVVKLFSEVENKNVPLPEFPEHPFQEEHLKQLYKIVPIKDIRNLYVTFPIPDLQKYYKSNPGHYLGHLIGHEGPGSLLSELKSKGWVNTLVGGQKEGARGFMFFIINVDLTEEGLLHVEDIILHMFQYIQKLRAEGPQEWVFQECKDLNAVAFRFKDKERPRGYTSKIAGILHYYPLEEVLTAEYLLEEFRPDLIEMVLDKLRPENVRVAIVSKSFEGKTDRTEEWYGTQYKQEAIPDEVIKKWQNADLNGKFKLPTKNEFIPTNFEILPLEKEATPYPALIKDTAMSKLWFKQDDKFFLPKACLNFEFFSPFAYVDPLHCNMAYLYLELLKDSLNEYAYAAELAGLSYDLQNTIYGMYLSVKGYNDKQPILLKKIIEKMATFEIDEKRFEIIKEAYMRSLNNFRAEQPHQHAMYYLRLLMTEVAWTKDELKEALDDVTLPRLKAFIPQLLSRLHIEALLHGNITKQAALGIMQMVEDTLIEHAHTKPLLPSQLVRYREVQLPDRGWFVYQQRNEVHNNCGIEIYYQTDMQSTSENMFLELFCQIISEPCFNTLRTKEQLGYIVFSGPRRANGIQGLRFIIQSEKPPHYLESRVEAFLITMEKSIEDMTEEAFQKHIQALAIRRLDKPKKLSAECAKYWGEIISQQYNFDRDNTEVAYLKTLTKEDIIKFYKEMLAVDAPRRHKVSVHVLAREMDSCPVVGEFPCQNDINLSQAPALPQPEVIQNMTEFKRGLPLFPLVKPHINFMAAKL
The assay is described as follows: Dose Response: Fluorescence polarization-based cell-based high throughput dose response assay for inhibitors of insulin-degrading enzyme (IDE). [Related pubchem assays: 434962 (Primary screen (IDE inhibitors in singlicate)), 449730 (Counterscreen (Cytotoxicity in triplicate)), 435028 (Confirmation (IDE inhibitors in triplicate)), 434984 (Summary …. Format: functional.

Chain of Phosphoethanolamine/phosphocholine phosphatase (Q8TCT1 whole entry): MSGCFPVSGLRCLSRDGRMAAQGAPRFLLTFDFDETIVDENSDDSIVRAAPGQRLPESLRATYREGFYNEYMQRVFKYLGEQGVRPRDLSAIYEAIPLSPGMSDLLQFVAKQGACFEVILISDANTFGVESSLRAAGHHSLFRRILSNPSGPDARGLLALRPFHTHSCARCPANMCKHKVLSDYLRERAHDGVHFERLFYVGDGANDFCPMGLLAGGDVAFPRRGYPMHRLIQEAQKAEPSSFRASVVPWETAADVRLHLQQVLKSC
Chain of DNA dC->dU-editing enzyme APOBEC-3G (Q9HC16 whole entry): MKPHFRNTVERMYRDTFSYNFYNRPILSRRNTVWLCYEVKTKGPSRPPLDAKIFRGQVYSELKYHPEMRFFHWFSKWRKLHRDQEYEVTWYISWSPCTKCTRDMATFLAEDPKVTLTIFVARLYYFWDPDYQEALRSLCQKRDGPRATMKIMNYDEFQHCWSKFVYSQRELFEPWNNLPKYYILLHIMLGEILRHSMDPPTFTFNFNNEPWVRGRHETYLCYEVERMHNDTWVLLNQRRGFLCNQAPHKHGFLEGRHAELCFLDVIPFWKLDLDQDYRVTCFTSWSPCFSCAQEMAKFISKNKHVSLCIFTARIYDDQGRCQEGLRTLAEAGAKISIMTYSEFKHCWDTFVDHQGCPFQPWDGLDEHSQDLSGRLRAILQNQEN

For `O=C(O)c1cccc(-n2sc3ccccc3c2=O)c1`, the IC50 in [1] is 1.14 µM (inactive); in assay [2], 36.7 µM (not active); in assay [3] it was > 100 µM (inactive); in assay [4], > 100 µM (inactive); in [5], 3.29 µM (active); in assay [6], 30.1 µM (active). Further, the IC50 in assay [7] is 4.85 µM (active); in assay [8], 52.5 µM (active); in assay [9] it was 2.38 µM (active).

The values above are taken from ChEMBL document CHEMBL1201862, “PubChem BioAssay data set” (2004).
